From patent publication US20230123334A1, “AMINO LIPID COMPOUND, PREPARATION METHOD THEREFOR, AND APPLICATION THEREOF” (SHENZHEN SHENXIN BIOTECHNOLOGY CO., LTD., priority 2020, published 2023)

Key:
[1] = test system: HEK293 cells; test: Preliminary screening as mRNA vectors, EGFP mRNA transfection of HEK293 cells; assay type: cell-based; conditions: HEK293 cells, 96-well plates, EGFP mRNA 50 ng per well; percentage of GFP fluorescent cells relative to total number of cells (Hoechst)
Summary of the method: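 Each well of HEK293 cells received 50 ng of EGFP mRNA. Efficiency was expressed as percent GFP-expressing cells over Hoechst-defined total cell number.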

[2] = test system: HEK293 cells; test: Preliminary screening as DNA vectors, GFP transfection of HEK293 cells; assay type: cell-based; conditions: HEK293 cells; lipid/DOPE liposome with 75 ng plasmid DNA (psin-EGFP-IRES-Puro); number of cells expressing GFP divided by total number of nuclei (Hoechst)
Summary of the method: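 Lipid + DOPE liposomes (NaOAc, pH 5.6) complexed w/ 75 ng psin-EGFP-IRES-Puro, 30 min RT; added to 3-5×10^4 HEK293/well, 37° C. Hoechst 0.2 μg/mL at 20-24 h, imaged after further 20-24 h. Efficiency = GFP+ cells / total nuclei.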

Compound | Absolute mRNA transfection efficiency in HEK293 cells [1] [%] | Absolute DNA transfection efficiency in HEK293 cells [2] [%]
CCCCCCCCCCCCCCCCSc1nc(NCCN2CCN(C)CC2)nc(SCCCCCCCC)n1 [Compound S8S16D5] | 20.5 | 3.7
CCCCCCCCCCCCCCCCSc1nc(NCCCN(C)C)nc(SCCCCCCCC)n1 [Compound S8S16D6] | 61.0 | 33.0
CCCCCCCCCCCCCCCCSc1nc(NCCN(CC)CC)nc(SCCCCCCCC)n1 [Compound S8S16D7] | 0.5 | 11.8
CCCCCCCCCCCCCCCCSc1nc(NCCCN2CCOCC2)nc(SCCCCCCCC)n1 [Compound S8S16D8] | 4.4 | 28.6
CCCCCCCCCCCCCCCCSc1nc(NCC2CCN(C)CC2)nc(SCCCCCCCC)n1 [Compound S8S16D10] | 98.3 | 75.2
CCCCCCCCCCCCCCCCCCSc1nc(NCCN(C)C)nc(SCCCCCCCC)n1 [Compound S8S18D1] | 3.9 | 7.6
CCCCCCCCCCCCCCCCCCSc1nc(NCCN2CCOCC2)nc(SCCCCCCCC)n1 [Compound S8S18D2] | 0.0 | 0.9
CCCCCCCCCCCCCCCCCCSc1nc(NCCN2CCCC2)nc(SCCCCCCCC)n1 [Compound S8S18D3] | 61.5 | 14.3
CCCCCCCCCCCCCCCCCCSc1nc(NCCN2CCCCC2)nc(SCCCCCCCC)n1 [Compound S8S18D4] | 2.0 | 15.8
CCCCCCCCCCCCCCCCCCSc1nc(NCCN2CCN(C)CC2)nc(SCCCCCCCC)n1 [Compound S8S18D5] | 27.5 | 9.6
CCCCCCCCCCCCCCCCCCSc1nc(NCCCN(C)C)nc(SCCCCCCCC)n1 [Compound S8S18D6] | 19.1 | 8.2
CCCCCCCCCCCCCCCCCCSc1nc(NCCN(CC)CC)nc(SCCCCCCCC)n1 [Compound S8S18D7] | 3.8 | 9.2
CCCCCCCCCCCCCCCCCCSc1nc(NCCCN2CCOCC2)nc(SCCCCCCCC)n1 [Compound S8S18D8] | 4.2 | 18.7
CCCCCCCCCCCCCCCCCCSc1nc(NCCCN2CCN(C)CC2)nc(SCCCCCCCC)n1 [Compound S8S18D9] | 28.1 | 17.7
CCCCCCCCCCCCCCCCCCSc1nc(NCC2CCN(C)CC2)nc(SCCCCCCCC)n1 [Compound S8S18D10] | 59.6 | 19.3
CCCCCCCCCSc1nc(NCCN(C)C)nc(SCCCCCCCCC)n1 [Compound S9S9D1] | 0.8 | 12.9
CCCCCCCCCSc1nc(NCCN2CCOCC2)nc(SCCCCCCCCC)n1 [Compound S9S9D2] | 3.1 | 6.8
CCCCCCCCCSc1nc(NCCN2CCCC2)nc(SCCCCCCCCC)n1 [Compound S9S9D3] | 4.5 | 11.9
CCCCCCCCCSc1nc(NCCN2CCCCC2)nc(SCCCCCCCCC)n1 [Compound S9S9D4] | 2.1 | 14.5
CCCCCCCCCSc1nc(NCCN2CCN(C)CC2)nc(SCCCCCCCCC)n1 [Compound S9S9D5] | 37.1 | 12.5
CCCCCCCCCSc1nc(NCCCN(C)C)nc(SCCCCCCCCC)n1 [Compound S9S9D6] | 33.0 | 5.6
CCCCCCCCCSc1nc(NCCN(CC)CC)nc(SCCCCCCCCC)n1 [Compound S9S9D7] | 3.6 | 32.6
CCCCCCCCCSc1nc(NCCCN2CCOCC2)nc(SCCCCCCCCC)n1 [Compound S9S9D8] | 14.8 | 19.1
CCCCCCCCCSc1nc(NCCCN2CCN(C)CC2)nc(SCCCCCCCCC)n1 [Compound S9S9D9] | 19.3 | 19.3
CCCCCCCCCSc1nc(NCC2CCN(C)CC2)nc(SCCCCCCCCC)n1 [Compound S9S9D10] | 34.9 | 11.3

Compound | Absolute mRNA transfection efficiency in HEK293 cells [1] [%] | Absolute DNA transfection efficiency in HEK293 cells [2] [%]
CCCCCCCCCCSc1nc(NCCN(C)C)nc(SCCCCCCCCC)n1 [Compound S9S10D1] | 5.0 | 8.6
CCCCCCCCCCSc1nc(NCCN2CCOCC2)nc(SCCCCCCCCC)n1 [Compound S9S10D2] | 2.5 | 10.7
CCCCCCCCCCSc1nc(NCCN2CCCC2)nc(SCCCCCCCCC)n1 [Compound S9S10D3] | 70.1 | 10.3
CCCCCCCCCCSc1nc(NCCN2CCCCC2)nc(SCCCCCCCCC)n1 [Compound S9S10D4] | 4.1 | 13.3
CCCCCCCCCCSc1nc(NCCN2CCN(C)CC2)nc(SCCCCCCCCC)n1 [Compound S9S10D5] | 61.4 | 27.6
CCCCCCCCCCSc1nc(NCCCN(C)C)nc(SCCCCCCCCC)n1 [Compound S9S10D6] | 74.6 | 21.2
CCCCCCCCCCSc1nc(NCCN(CC)CC)nc(SCCCCCCCCC)n1 [Compound S9S10D7] | 2.8 | 8.3
CCCCCCCCCCSc1nc(NCCCN2CCOCC2)nc(SCCCCCCCCC)n1 [Compound S9S10D8] | 9.8 | 22.5
CCCCCCCCCCSc1nc(NCCCN2CCN(C)CC2)nc(SCCCCCCCCC)n1 [Compound S9S10D9] | 46.6 | 34.1
CCCCCCCCCCSc1nc(NCC2CCN(C)CC2)nc(SCCCCCCCCC)n1 [Compound S9S10D10] | 47.2 | 18.7
CCCCCCCCCCCSc1nc(NCCN(C)C)nc(SCCCCCCCCC)n1 [Compound S9S11D1] | 3.0 | 9.5
CCCCCCCCCCCSc1nc(NCCN2CCOCC2)nc(SCCCCCCCCC)n1 [Compound S9S11D2] | 3.3 | 17.3
CCCCCCCCCCCSc1nc(NCCN2CCCC2)nc(SCCCCCCCCC)n1 [Compound S9S11D3] | 1.9 | 10.0
CCCCCCCCCCCSc1nc(NCCN2CCCCC2)nc(SCCCCCCCCC)n1 [Compound S9S11D4] | 4.1 | 15.2
CCCCCCCCCCCSc1nc(NCCN2CCN(C)CC2)nc(SCCCCCCCCC)n1 [Compound S9S11D5] | 48.6 | 11.4
CCCCCCCCCCCSc1nc(NCCCN(C)C)nc(SCCCCCCCCC)n1 [Compound S9S11D6] | 85.1 | 41.9
CCCCCCCCCCCSc1nc(NCCN(CC)CC)nc(SCCCCCCCCC)n1 [Compound S9S11D7] | 2.5 | 8.1
CCCCCCCCCCCSc1nc(NCCCN2CCOCC2)nc(SCCCCCCCCC)n1 [Compound S9S11D8] | 24.4 | 21.8
CCCCCCCCCCCSc1nc(NCCCN2CCN(C)CC2)nc(SCCCCCCCCC)n1 [Compound S9S11D9] | 49.7 | 8.5
CCCCCCCCCCCSc1nc(NCC2CCN(C)CC2)nc(SCCCCCCCCC)n1 [Compound S9S11D10] | 88.8 | 32.8
CCCCCCCCCCCCCCCCCCSc1nc(NCCN(C)C)nc(SCCCCCCCCC)n1 [Compound S9S18D1] | 2.7 | 4.9
CCCCCCCCCCCCCCCCCCSc1nc(NCCN2CCOCC2)nc(SCCCCCCCCC)n1 [Compound S9S18D2] | 0.0 | 2.3
CCCCCCCCCCCCCCCCCCSc1nc(NCCN2CCCC2)nc(SCCCCCCCCC)n1 [Compound S9S18D3] | 35.8 | 13.9
CCCCCCCCCCCCCCCCCCSc1nc(NCCN2CCCCC2)nc(SCCCCCCCCC)n1 [Compound S9S18D4] | 0.6 | 5.5
